Test results as given in PMC5727165, “A switch in nucleotide affinity governs activation of the Src and Tec family kinases” (Scientific Reports, 2017).
Entries after “also recorded” stand apart in the source; their conditions may differ. Read-outs that look alike come from different tables or passages of the source.

Columns and labels:
Itk^32K L351A = target: T1, Itk^32K L351A (Homo sapiens, UniProt Q08881, L351A); assay: Fluorescence anisotropy binding of Mant-labelled nucleotides
T1 construct: Human Itk^171–620 (Itk^32K); GST (cleaved yes); made in house; host or cells: baculovirus-infected Sf9 insect cells
T1 sequence (Q08881 171-620 L351A): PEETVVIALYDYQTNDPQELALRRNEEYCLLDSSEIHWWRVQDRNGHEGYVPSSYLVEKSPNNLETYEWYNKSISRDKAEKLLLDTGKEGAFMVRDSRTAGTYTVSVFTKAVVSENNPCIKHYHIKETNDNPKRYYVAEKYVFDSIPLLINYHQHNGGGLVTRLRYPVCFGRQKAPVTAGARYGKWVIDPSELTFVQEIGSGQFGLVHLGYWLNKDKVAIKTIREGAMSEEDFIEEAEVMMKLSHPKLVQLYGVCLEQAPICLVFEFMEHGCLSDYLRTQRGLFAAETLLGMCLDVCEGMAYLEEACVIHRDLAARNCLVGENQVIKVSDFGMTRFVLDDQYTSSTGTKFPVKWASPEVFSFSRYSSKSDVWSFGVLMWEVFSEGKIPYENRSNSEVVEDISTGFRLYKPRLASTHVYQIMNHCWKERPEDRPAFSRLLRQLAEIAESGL
Description: (§1) Figure 3 An allosteric switch triggers nucleotide exchange. (a) Hydrophobic stack conservation in Src family kinases. The table illustrates the amino acid identity at each of the three positions in the hydrophobic stack in addition to the invariant tryptophan (Trp260 in Src) for all Src family kinase members. The positions are presented according to their N- to C-terminal order in the primary sequences. Where it was not possible to unambiguously determine the identity of the amino acid contributed by the SH2-kinase variable linker (V3), the residue is denoted by a question mark. (b) Small angle X-ray scattering of Itk^32K L351A (black). The scattering curve for wild type Itk^32K (cyan) is overlaid for comparison. […] (c) Rigid body modelling of Itk^32K L351A and fit to ab initio molecular envelope. Displacement of both the SH3 and SH2 domains is required for a good fit to the experimental scattering curve. (d) Determination of the binding constants of Itk^32K L351A for nucleotides by fluorescence anisotropy. […] (e) Determination of the thermal stabilities and relative binding affinities of non-phosphorylated Src^32KΔC L255A for nucleotides by differential scanning fluorimetry. […] TEXT PRINTED IN THE PICTURE: (d) Mant-ADP: Itk^32K L351A (non-phos) Kd (μM): 21.0 ± 2.1 | (d) Mant-ATP: Itk^32K L351A (non-phos) Kd (μM): 31.7 ± 2.7 | (e) ADP: Src^32KΔC L255A (non-phos) [nuc]1/2 (μM): 310 ± 20; Src^32KΔC L255A (non-phos) Tm^max (°C): 52.9; Src^32KΔC L255A (non-phos) ΔTm^max (°C): + 6.8 | (e) ATP: Src^32KΔC L255A (non-phos) [nuc]1/2 (μM): 100 ± 10; Src^32KΔC L255A (non-phos) Tm^max (°C): 54.2; Src^32KΔC L255A (non-phos) ΔTm^max (°C): + 8.1 | (e) apo: Src^32KΔC L255A (non-phos) Tm^max (°C): 46.1
To establish whether hydrophobic stack disassembly triggers a switch in nucleotide binding of the kinase domain, we measured the binding of both unphosphorylated and activation loop phosphorylated (pY511) Itk^32K L351A to ADP and ATP.
The binding constants for ADP and AMPPNP were determined for Src and Itk proteins by fluorescence anisotropy, using 2′/3′-Mant-labelled nucleotides (Jena Bioscience). Increasing concentrations of Itk^32K, Itk^L351A or Src^32K were incubated with 40 μM Mant-nucleotide in 30 mM Tris pH 7.5, 200 mM NaCl, 5 mM MgCl2, and 1 mM TCEP. Measurements were made with a Perkin Elmer LS50B fluorimeter (λex = 355 nm, λem = 447 nm) at 20 °C. For each data point 50–60 measurements, each with an integration time of 1 s, were averaged. For competition nucleotide displacement assays, 40–80 μM of protein was incubated with 40 μM Mant-ADP until equilibrium was established. Unlabelled nucleotide was titrated into the reaction and fluorescence anisotropy monitored. The equilibrium inhibition constant for the unlabelled nucleotide was calculated from the fitted curve.

Src^32KΔC L255A = target: T2, Src^32KΔC L255A (Mus musculus, UniProt P05480, L257A); assay: Differential scanning fluorimetry (thermal stability vs nucleotide concentration); assay type: binding; details: Src^32KΔC L255A non-phosphorylated; DSF
T2 construct: mouse Src^85-523 (Src^32KΔC); GST (cleaved yes); made in house; host or cells: baculovirus-infected Sf9 insect cells
Description: as §1
Due to limiting protein concentrations, we were unable to obtain a binding curve by fluorescence anisotropy, so we instead used thermal stability measurements to investigate its nucleotide-binding properties. Determination of accurate binding constants from thermal stability measurements requires knowledge of the enthalpy of unfolding. However, for a given protein, the enthalpy of unfolding is independent of the ligand being tested, so comparison of the concentrations of nucleotide required for half maximal stabilisation is valid.
(§2) Thermal stabilities as a function of nucleotide concentration were measured by differential scanning fluorimetry (DSF). Samples contained 0.1 mg/ml protein in 50 mM Tris pH 7.5, 150 mM NaCl, 1 mM TCEP, and 5 mM MgCl2 with ADP, ATP, or AMPPNP concentrations ranging from 0–16 mM. Samples were measured in triplicate using a BioRad iQ™5 Multicolor Real-Time PCR Detection System. For detection of phosphorylated protein, samples were diluted and 1 ng and 15 ng were loaded to SDS-PAGE for Src and Itk proteins, respectively. Phosphorylation was measured by immunoblot.

Src^32K = target: T3, Src^32K (Mus musculus, UniProt P05480); assay: as above; assay type: binding
T3 construct: mouse Src^85-535 (Src^32K); GST (cleaved yes); made in house; host or cells: baculovirus-infected Sf9 insect cells, co-expressed with human Csk
Experimental: as §2, with “We noted that the thermal stability of Src^32K initially decreases at low concentrations of ATP, before rising again at higher concentrations. This was reproducible and correlates with autophosphorylation of Tyr416 during the course of the assay (Supplementary Fig. 4h). Thermal” for “Thermal”

Structure (SMILES): Nc1ncnc2c1ncn2[C@@H]1O[C@H](COP(=O)(O)OP(=O)(O)O)[C@@H](O)[C@H]1O [ADP]
- Kd (Itk^32K L351A; Itk^32K L351A non-phosphorylated, read-out: Kd): 21 µM
- Kd (Itk^32K L351A; activation loop-phosphorylated (pTyr511) Itk^32K L351A, read-out: Kd (binding constant)): 30 µM
- Tm^max (Src^32KΔC L255A): 52.9 °C
- [nuc]1/2 (nucleotide concentration for half maximal stabilisation) (Src^32KΔC L255A): 310 ± 20 µM
- thermal stabilisation compared with other nucleotides (Src^32K; Src^32K pY416, vs ATP): higher thermal stability with ADP than ATP
- thermal stabilisation compared with other nucleotides (Src^32K; Src^32K, same nucleotide concentrations, vs ATP or AMPPNP): to a greater extent; also recorded: higher thermal stability
